The target of assay [1] is T1, purified LasB protein from P. aeruginosa (Pseudomonas aeruginosa, UniProt P14756).
T1 construct: purchased Merck or Charles River Laboratories
Description: Fluorometric assay to determine Ki (Abz-Ala-Gly-Leu-Ala-p-Nitro-Benzyl-Amide substrate). It counts as biochemical. An outline of the steps: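 Purified P. aeruginosa LasB (10–140 ng/ml) with 250 µM Abz-Ala-Gly-Leu-Ala-p-nitrobenzylamide in 50 mM Tris-HCl pH 7.4, 2.5 mM CaCl2, 0.01% Triton X100, 37 °C; hydrolysis fluorescence (Ex 340/Em 415 nm) followed over 30 min, inhibitor 0.0016–200 µM. Ki = IC50/(1+[S]/Km), Km 214 µM.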

The target of the next assay is T2, LasB (Pseudomonas aeruginosa, UniProt P14756).
T2 construct: uses as source of enzyme dialysed supernatant from P. aeruginosa PAO1; endogenous in cells; host or cells: P. aeruginosa PAO1 culture supernatant, filtered and dialysed
T2 sequence (P14756 198-498): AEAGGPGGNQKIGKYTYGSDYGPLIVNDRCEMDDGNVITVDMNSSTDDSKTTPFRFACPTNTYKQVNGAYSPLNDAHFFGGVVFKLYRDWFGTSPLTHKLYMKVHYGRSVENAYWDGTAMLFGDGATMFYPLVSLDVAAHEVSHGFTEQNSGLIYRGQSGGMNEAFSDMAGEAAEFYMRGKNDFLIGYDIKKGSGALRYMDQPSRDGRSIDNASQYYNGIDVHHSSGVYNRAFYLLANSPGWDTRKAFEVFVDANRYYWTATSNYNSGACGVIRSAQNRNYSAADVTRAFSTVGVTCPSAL
Description: Elastin assay to determine % inhibition (Elastin Congo-Red, dialysed culture supernatant). Type of assay: biochemical, P. aeruginosa PAO1. The note with it: read-out: Elastin hydrolysis % inhibition @ 50 / 25 µM inhibitor concentration. The method, boiled down: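 Enzyme source was dialysed PAO1 culture supernatant (50 mM Tris-HCl pH 7.4, 2.5 mM CaCl2), mixed with Elastin Congo-Red and 0.01% Triton X-100. Compound was routinely 50 to 1.56 µM, incubated overnight at 37 °C with shaking. Dye release at OD495 gave % inhibition relative to DMSO and no-enzyme controls.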

Structures are written as SMILES. Some results are limits rather than exact numbers.

T1 sequence (P14756 198-498): as above

In turn, `C[N+]1(CCCOc2ccc(-c3csc(CNC(=O)C4(CC(=O)[O-])Cc5ccccc5C4)n3)cc2S(C)(=O)=O)CCOCC1` [Example 61, 2-[2-[[4-[4-[3-(4-methylmorpholin-4-ium-4-yl)propoxy]-3-methylsulfonyl-phenyl]thiazol-2-yl]methylcarbamoyl]indan-2-yl]acetate] came in with a Ki in assay [1] of 50 to 200 nM. In addition, at LasB, the inhibition at 25 µM lay within 60 to 75%.

As to `C[N+]1(CCCOc2ccc(-c3csc(CNC(=O)C4(CC(=O)[O-])Cc5cc(F)c(F)cc5C4)n3)cc2S(C)(=O)=O)CCOCC1` [Example 62, 2-[5,6-difluoro-2-[[4-[4-[3-(4-methylmorpholin-4-ium-4-yl)propoxy]-3-methylsulfonyl-phenyl]thiazol-2-yl]methylcarbamoyl]indan-2-yl]acetate], the Ki in assay [1] was 50 to 200 nM. On LasB, the inhibition at 25 µM lay within 60 to 75%.

`COc1cc(OCC(=O)N2CCN(C)CC2)ccc1-c1csc(CNC(=O)C2(CC(=O)O)Cc3ccccc3C2)n1` [Example 63, 2-[2-[[4-[2-methoxy-4-[2-(4-methylpiperazin-1-yl)-2-oxo-ethoxy]phenyl]thiazol-2-yl]methylcarbamoyl]indan-2-yl]acetic acid] gave a Ki in assay [1] of 50 to 200 nM. At LasB, the inhibition at 25 µM is above 75%.

For `COc1cc(OCC(=O)N2CC([N+](C)(C)C)C2)ccc1-c1csc(CNC(=O)C2(CC(=O)[O-])Cc3cc(F)c(F)cc3C2)n1` [Example 64, 2-[5,6-difluoro-2-[[4-[2-methoxy-4-[2-oxo-2-[3-(trimethylammonio)azetidin-1-yl]ethoxy]phenyl]thiazol-2-yl]methylcarbamoyl]indan-2-yl]acetate], in assay [1], the Ki lay in the range of 50 to 200 nM. The inhibition at 25 µM at LasB fell in the range of 60 to 75%.

Compound `COc1cc(OCC[N+]2(C)CCOCC2)ccc1-c1csc(CNC(=O)C2(CC(=O)[O-])Cc3ccccc3C2)n1` [Example 67, 2-[2-[[4-[2-methoxy-4-[2-(4-methylmorpholin-4-ium-4-yl)ethoxy]phenyl]thiazol-2-yl]methylcarbamoyl]indan-2-yl] acetate] returned a Ki in assay [1] of 50 to 200 nM. In addition, the inhibition at 25 µM at LasB was 60 to 75%.

`COc1cc(OCC[N+]2(C)CCOCC2)ccc1-c1csc(CNC(=O)C2(CC(=O)[O-])Cc3cc(F)c(F)cc3C2)n1` [Example 68, 2-[5,6-difluoro-2-[[4-[2-methoxy-4-[2-(4-methylmorpholin-4-ium-4-yl)ethoxy]phenyl]thiazol-2-yl]methylcarbamoyl]indan-2-yl]acetate]: the inhibitory constant (Ki) in assay [1] lay within 50 to 200 nM. Also, the inhibition at 25 µM on LasB lay in the range of 60 to 75%.

As for `COc1cc(OCCC[N+]2(C)CCOCC2)ccc1-c1csc(CNC(=O)C2(CC(=O)[O-])Cc3ccccc3C2)n1` [Example 69, 2-[2-[[4-[2-methoxy-4-[3-(4-methylmorpholin-4-ium-4-yl)propoxy]phenyl]thiazol-2-yl]methylcarbamoyl]indan-2-yl]acetate], in assay [1], the Ki was in the range of 50 to 200 nM. Further, the inhibition at 25 µM on LasB lay in the range of 10 to 60%.

In the case of `COc1cc(OCCC[N+]2(C)CCOCC2)ccc1-c1csc(CNC(=O)C2(CC(=O)[O-])Cc3cc(F)c(F)cc3C2)n1` [Example 70, 2-[5,6-difluoro-2-[[4-[2-methoxy-4-[3-(4-methylmorpholin-4-ium-4-yl)propoxy]phenyl]thiazol-2-yl]methylcarbamoyl]indan-2-yl]acetate], the Ki in assay [1] was 50 to 200 nM. In addition, the inhibition at 25 µM on LasB was in the range of 60 to 75%.

Compound `COc1cc(OCCCN2CCOCC2)ccc1-c1csc(CNC(=O)C2(CC(=O)O)Cc3ccccc3C2)n1` [Example 71, 2-[2-[[4-[2-methoxy-4-(3-morpholinopropoxy)phenyl]thiazol-2-yl]methylcarbamoyl]indan-2-yl]acetic acid] yielded a Ki in assay [1] below 50 nM. Further, at LasB, the inhibition at 25 µM is above 75%.

As to `COc1cc(OCCCN2CCCC2)ccc1-c1csc(CNC(=O)C2(CC(=O)O)Cc3cc(F)c(F)cc3C2)n1` [Example 72, 2-[5,6-difluoro-2-[[4-[2-methoxy-4-(3-pyrrolidin-1-ylpropoxy)phenyl]thiazol-2-yl]methylcarbamoyl]indan-2-yl]acetic acid], the Ki in assay [1] was below 50 nM. Also, at LasB, the inhibition at 25 µM lay within 10 to 60%.

`COc1cc(OCCC[N+]2(C)CCCC2)ccc1-c1csc(CNC(=O)C2(CC(=O)[O-])Cc3cc(F)c(F)cc3C2)n1` [Example 73, 2-[5,6-difluoro-2-[[4-[2-methoxy-4-[3-(1-methylpyrrolidin-1-ium-1-yl)propoxy]phenyl]thiazol-2-yl]methylcarbamoyl]indan-2-yl)acetate]: in assay [1], the Ki fell in the range of 50 to 200 nM. The inhibition at 25 µM at LasB fell in the range of 60 to 75%.

`COc1cc(OCc2ccncc2)ccc1-c1csc(CNC(=O)C2(CC(=O)O)Cc3ccccc3C2)n1` [Example 74, 2-[2-[[4-[2-methoxy-4-(4-pyridylmethoxy)phenyl]thiazol-2-yl]methylcarbamoyl]indan-2-yl]acetic acid] yielded a Ki in assay [1] below 50 nM. Also, the inhibition at 25 µM at LasB is above 75%.

In assay [1], `COc1cc(OCc2cc[n+](C)cc2)ccc1-c1csc(CNC(=O)C2(CC(=O)[O-])Cc3ccccc3C2)n1` [Example 75, 2-[2-[[4-[2-methoxy-4-[(1-methylpyridin-1-ium-4-yl)methoxy]phenyl]thiazol-2-yl]methylcarbamoyl]indan-2-yl]acetate] returned a Ki of 50 to 200 nM. In addition, the inhibition at 25 µM on LasB is 60 to 75%.

In assay [1], `COc1cc(OCCN2CCOCC2)ccc1-c1csc(CNC(=O)C2(CC(=O)O)Cc3ccccc3C2)n1` [Example 76, 2-[2-[[4-[2-methoxy-4-(2-morpholinoethoxy)phenyl]thiazol-2-yl]methylcarbamoyl]indan-2-yl]acetic acid] had a Ki below 50 nM. Further, the inhibition at 25 µM at LasB was above 75%.

Turning to `COc1cc(OCc2ccc[n+](C)c2)ccc1-c1csc(CNC(=O)C2(CC(=O)[O-])Cc3ccccc3C2)n1` [Example 77, 2-[2-[[4-[2-methoxy-4-[(1-methylpyridin-1-ium-3-yl)methoxy]phenyl]thiazol-2-yl]methylcarbamoyl]indan-2-yl]acetate], in assay [1], the Ki was in the range of 50 to 200 nM. At LasB, the inhibition at 25 µM is 10 to 60%.

As for `COc1cc(OCc2cccnc2)ccc1-c1csc(CNC(=O)C2(CC(=O)O)Cc3ccccc3C2)n1` [Example 78, 2-[2-[[4-[2-methoxy-4-(3-pyridylmethoxy)phenyl]thiazol-2-yl]methylcarbamoyl]indan-2-yl]acetic acid], the Ki in assay [1] was below 50 nM. In addition, on LasB, the inhibition at 25 µM is above 75%.

In assay [1], `COc1cc(OCC(=O)N2CC[N+](C)(C)CC2)ccc1-c1csc(CNC(=O)C2(CC(=O)[O-])Cc3ccccc3C2)n1` [Example 79, 2-[2-[[4-[4-[2-(4,4-dimethylpiperazin-4-ium-1-yl)-2-oxo-ethoxy]-2-methoxy-phenyl]thiazol-2-yl]methylcarbamoyl]indan-2-yl]acetate] showed a Ki of 50 to 200 nM. Further, the inhibition at 25 µM on LasB lay within 60 to 75%.

For the compound `COc1cc(OCCCN(C)C)ccc1-c1csc(CNC(=O)C2(CC(=O)O)Cc3cc(F)c(F)cc3C2)n1` [Example 80, 2-[2-[[4-[4-[3-(dimethylamino)propoxy]-2-methoxyphenyl]thiazol-2-yl]methylcarbamoyl]-5,6-difluoro-indan-2-yl]acetic acid], the Ki in assay [1] lay in the range of 50 to 200 nM. Further, on LasB, the inhibition at 25 µM fell in the range of 60 to 75%.

With `COc1cc(OCCC[N+](C)(C)C)ccc1-c1csc(CNC(=O)C2(CC(=O)[O-])Cc3cc(F)c(F)cc3C2)n1` [Example 81, 2-[5,6-difluoro-2-[[4-[2-methoxy-4-[3-(trimethylammonio)propoxy]phenyl]thiazol-2-yl]methylcarbamoyl]indan-2-yl] acetate], in assay [1], the Ki was 50 to 200 nM. For the same compound, on LasB, the inhibition at 25 µM fell in the range of 60 to 75%.

Regarding `COc1cc(OCC(=O)N2CC[N+](C)(C)CC2)ccc1-c1csc(CNC(=O)C2(CC(=O)[O-])Cc3cc(F)c(F)cc3C2)n1` [Example 82, 2-[2-[[4-[4-[2-(4,4-dimethylpiperazin-4-ium-1-yl)-2-oxo-ethoxy]-2-methoxy-phenyl]thiazol-2-yl]methylcarbamoyl]-5,6-difluoro-indan-2-yl]acetate], the Ki in assay [1] is 50 to 200 nM. Also, on LasB, the inhibition at 25 µM was 60 to 75%.

Take `COc1cc(OCCN2CCN(C)C(=O)C2)ccc1-c1csc(CNC(=O)C2(CC(=O)O)Cc3ccccc3C2)n1` [Example 83, 2-[2-[[4-[2-methoxy-4-[2-(4-methyl-3-oxo-piperazin-1-yl)ethoxy]phenyl]thiazol-2-yl]methylcarbamoyl]indan-2-yl]acetic acid]: the Ki in assay [1] was below 50 nM. Besides, the inhibition at 25 µM on LasB is above 75%.

`COc1cc(OCC[N+]2(C)CCN(C)C(=O)C2)ccc1-c1csc(CNC(=O)C2(CC(=O)[O-])Cc3ccccc3C2)n1` (stereo not drawn) [Example 84, 2-[2-[[4-[4-[2-(1,4-dimethyl-3-oxo-piperazin-1-ium-1-yl)ethoxy]-2-methoxy-phenyl]thiazol-2-yl]methylcarbamoyl]indan-2-yl]acetate]: the Ki in assay [1] fell in the range of 50 to 200 nM. Besides, the inhibition at 25 µM at LasB was in the range of 60 to 75%.

On to `COc1cc(OCCc2nccn2C)ccc1-c1csc(CNC(=O)C2(CC(=O)O)Cc3ccccc3C2)n1` [Example 85, 2-[2-[[4-[2-methoxy-4-[2-(1-methylimidazol-2-yl)ethoxy]phenyl]thiazol-2-yl]methylcarbamoyl]indan-2-yl]acetic acid], for which the Ki in assay [1] fell in the range of 50 to 200 nM. On LasB, the inhibition at 25 µM fell in the range of 60 to 75%.

In assay [1], `COc1cc(OCCc2n(C)cc[n+]2C)ccc1-c1csc(CNC(=O)C2(CC(=O)[O-])Cc3cc(F)c(F)cc3C2)n1` [Example 86, 2-[2-[[4-[4-[2-(1,3-dimethylimidazol-1-ium-2-yl)ethoxy]-2-methoxy-phenyl]thiazol-2-yl]methylcarbamoyl]-5,6-difluoro-indan-2-yl]acetate] yielded a Ki of 50 to 200 nM. Moreover, the inhibition at 25 µM on LasB lay within 60 to 75%.

The Ki is the equilibrium dissociation constant of an inhibitor or competing ligand from its target.

For the origin of these results see patent publication EP3628672A1 (priority 2018, dated 2020).
